According to US11071768B2, “Caspofungin compositions for inhalation” (TRILOGY THERAPEUTICS, INC., priority 2018, dated 2021):
In brackets after ≈: the same amount, converted by molar mass. Several values for one entry are separate records, joined by “and”; a condition that tells them apart may be missing. Equal entries are not always repeated. Starred links: 1 amine or outer side, 2 acyl side, 3 side chain; linkers in the order of their positions; H or OH if unused. Positions of bridges follow the written chain, without caps; N, C: chain ends. Non-standard residues stand in square brackets, D forms with d. Residues, ends and D or L forms follow the SMILES beside them. *: point of attachment. hTyr(3S-OH,4S-OH,3'-OSO3H) = N[C@H](C(=O)O)[C@H](O)[C@@H](O)c1ccc(O)c(OS(=O)(=O)O)c1; pTerphenylCO(4''-OnC5H11) = CCCCCOc1ccc(-c2ccc(-c3ccc(C(=O)*)cc3)cc2)cc1; Orn(4R-OH,5R-OH) = O=C([C@H](C[C@@H](O)[C@@H](O)N[*:3])N[*:1])[*:2]; hTyr(3S-OH,4S-OH) = N[C@H](C(=O)O)[C@H](O)[C@@H](O)c1ccc(O)cc1; Pro(3S-OH,4S-Me) = C[C@H]1CN[C@H](C(=O)O)[C@H]1O; X1 = CCCCCOc1ccc(-c2cc(-c3ccc(C(=O)*)cc3)no2)cc1; Gln(3R-OH) = NC(=O)C[C@@H](O)[C@H](N)C(=O)O; Hyp = O=C(O)[C@@H]1C[C@@H](O)CN1

Key:
[1] = rat; cited from earlier work
[2] = cited from earlier work
[3] = Storage stability of lyophilized formulations by HPLC; format: physicochemical; conditions: for RT 26.1 (hydrolysis degradation product) / RT 37.3 (dimerization degradation product) / HPLC purity % (total caspofungin): lyophilized
Method: General: HPLC analysis was carried out on a Waters 2695 separations module equipped with an autosampler and a Waters 996 photodiode array detector. The HPLC method is described below:
Aliquots of 0.5 mL of each formulation listed in Table 3 were frozen on dry ice for 30 min and lyophilized for 40 h to obtain white cakes. A portion of each cake was reconstituted in 1 mL of deionized water and analyzed by HPLC. The vials were stoppered, crimp sealed and placed on stability at 5° C. and 40° C.
Each liquid formulation in Table 5 was equally split into two vials, frozen on dry ice for 1 h and lyophilized for 90 h to obtain white cakes. The vials were stoppered, crimp sealed and placed on stability at 5° C. and 40° C.
The liquid formulations to be lyophilized were prepared according to Table 6. Aliquots of 0.5 mL of each liquid formulation were placed in 3 mL glass vials, frozen on dry ice for 40 min. The vials were partially stoppered with lyo septa and lyophilized for 5 days. The vials were placed on stability at 5° C., ambient (dark) and −20° C.
Fourteen 0.5 mL aliquots of each liquid formulation prepared in part C were placed in 14 3-mL glass vials. The vials were frozen on dry ice for about 1 h and lyophilized for 5 days to obtain white cake. The vials were stoppered, crimp sealed and placed on stability at −20° C., 5° C., and ambient (dark) conditions.
One vial of the lyophilized cake was reconstituted in 1 mL of deionized water to obtain a 10 mg/mL caspofungin diacetate solution. An aliquot (55 μL) was removed and diluted with 1 mL of deionized water for HPLC analysis.
Tables 11, 12, 13, and 14 summarize the total caspofungin (%) as determined by HPLC present for each formulation prepared prior to storage and after several storage conditions. RT as below refers to HPLC retention time. The product with a retention time of 26.1 minutes is a hydrolysis degradation product while the product with a retention time of 37.3 minutes is a dimerization degradation product that is obtained from the dimerization of the hydrolysis products.

[4] = KF water content of lyophilized formulations; format: physicochemical; conditions: lyo cake, T0; listed as API (lyo process)
Description: Tables 17 and 18 summarize the % water content measured of the prepared formulations.

[5] = system: Aspergillus fumigatus ATCC 13073; assay: In vitro broth microdilution assay (CLSI); format: cell-based
Method: (§1) The antifungal potency of the test article(s) was measured using the in vitro broth microdilution assay under assay conditions described by the Clinical and Laboratory Standards Institute. In this assay, the Minimum Inhibitory Concentration (MIC) is defined as the lowest concentration of an agent that causes a specified reduction in visible growth of the microorganism. The Minimal Effective Concentration (MEC) is defined as the lowest concentration of an agent that leads to the growth of small, rounded, compact hyphal forms as compared to the hyphal growth seen in the growth control well. In this study, MIC values are determined for the 9 Candida species and Cryptococcus neoformans. MEC values are determined for 3 filamentous fungi (2 Aspergillus fumigatus and Trichophyton rubrum). Test articles were prepared as the following:
(§2) The 3.2 mg/mL working stock solution was 2-fold diluted serially in 0.9% NaCl to prepare a total of eleven 50-fold stock solutions, concentrations ranging from 3.2 to 0.003 mg/mL. A 4 μL aliquot of each dilution was added to 196 μL of broth medium seeded with the organism suspension in wells of a 96 well plate (fungal cell count: 1×10^3 to 1×10^4 colony forming units per mL). The final volume was 200 μL in each well. Following incubation, the test plates were visually examined and wells were scored for growth or complete growth inhibition to define the MIC values. Microscopy examination was used to determine the MEC values. Each test substance was evaluated in duplicate and the results below are the duplicate test values. Vehicle-control and an active reference agent were used as blank and positive controls, respectively.

[6] = system: Aspergillus fumigatus ATCC204305; assay: In vitro broth microdilution assay (CLSI); format: cell-based
Method: as §1, §2

[7] = system: Candida albicans ATCC44858; assay: In vitro broth microdilution assay (CLSI); format: cell-based
Method: as §1, §2

[8] = system: Candida albicans ATCC90028; assay: In vitro broth microdilution assay (CLSI); format: cell-based
Method: as §1, §2

[9] = system: Candida albicans Azole-R (20183.073); assay: In vitro broth microdilution assay (CLSI); format: cell-based
Method: as §1, §2

[10] = system: Candida albicans Azole-R (20186.025); assay: In vitro broth microdilution assay (CLSI); format: cell-based
Method: as §1, §2

[11] = system: Candida glabrata ATCC 36583; assay: In vitro broth microdilution assay (CLSI); format: cell-based
Method: as §1, §2

Candida krusei ATCC 6258 = assay: In vitro broth microdilution assay (CLSI); format: cell-based
Method: as §1, §2

[12] = system: Candida parapsilosis ATCC 22019; assay: In vitro broth microdilution assay (CLSI); format: cell-based
Method: as §1, §2

[13] = system: Candida tropicalis ATCC 200956; assay: In vitro broth microdilution assay (CLSI); format: cell-based
Method: as §1, §2

[14] = system: Cryptococcus neoformans ATCC 24067; assay: In vitro broth microdilution assay (CLSI); format: cell-based
Method: as §1, §2

[15] = system: Trichophyton rubrum ATCC 10218; assay: In vitro broth microdilution assay (CLSI); format: cell-based
Method: as §1, §2

[16] = Candida albicans ATCC90028 + 50% human serum

Compound: CCCCCOc1ccc(-c2cc(-c3ccc(C(=O)N[C@H]4C[C@@H](O)[C@@H](O)NC(=O)[C@@H]5[C@@H](O)[C@@H](C)CN5C(=O)[C@H]([C@H](O)CC(N)=O)NC(=O)[C@H]([C@H](O)[C@@H](O)c5ccc(O)c(OS(=O)(=O)O)c5)NC(=O)[C@@H]5C[C@@H](O)CN5C(=O)[C@H]([C@@H](C)O)NC4=O)cc3)no2)cc1 [Micafungin, micafungin] (X1-[Orn(4R-OH,5R-OH)]T[Hyp][hTyr(3S-OH,4S-OH,3'-OSO3H)][Gln(3R-OH)][Pro(3S-OH,4S-Me)]; lactam 1-C)
- Exposure in the kidney relative to plasma [1]: 3.4 fold
- Exposure in the liver relative to plasma [1]: 1.6 fold
- Exposure in the lung relative to plasma [1]: 2.9 fold

Compound: CCCCCOc1ccc(-c2ccc(-c3ccc(C(=O)N[C@H]4C[C@@H](O)[C@@H](O)NC(=O)[C@@H]5[C@@H](O)[C@@H](C)CN5C(=O)[C@H]([C@@H](C)O)NC(=O)[C@H]([C@H](O)[C@@H](O)c5ccc(O)cc5)NC(=O)[C@@H]5C[C@@H](O)CN5C(=O)[C@H]([C@@H](C)O)NC4=O)cc3)cc2)cc1 [anidulafungin] ({pTerphenylCO(4''-OnC5H11)}-[Orn(4R-OH,5R-OH)]T[Hyp][hTyr(3S-OH,4S-OH)]T[Pro(3S-OH,4S-Me)]; lactam 1-C)
- Time that levels stay above MICs for common pathogens ([2]; rat tissues): 72 h
- Exposure in tissues (liver, lung, spleen, kidney) relative to plasma ([2]; rat): 9-12 fold
- Time to peak concentrations in tissues ([2]; rat): ≤ 30 min

Compound: caspofungin diacetate
- HPLC purity of control ([3]; Pure API control, as printed in the head): 99.72%)
- RT 26.1 (hydrolysis degradation product) ([3]; 40° C. 1 week): 2.88%
- RT 37.3 (dimerization degradation product) ([3]; 40° C. 1 week): 9.26%
- HPLC purity % (total caspofungin) ([3]; 40° C. 1 week, listed as API (lyo process)): 82.32%
- HPLC purity % (total caspofungin) ([3]; 40° C. 1 week, listed as Pure API): 88.48%
- HPLC purity % (total caspofungin) ([3]; 40° C. 3 week): 75.71%
- RT 26.1 (hydrolysis degradation product) ([3]; 40° C. 3 week): 6.09%
- RT 37.3 (dimerization degradation product) ([3]; 40° C. 3 week): 4.38%
- RT 26.1 (hydrolysis degradation product) ([3]; T0): 2.17%
- RT 37.3 (dimerization degradation product) ([3]; T0): 1.57%
- HPLC purity % (total caspofungin) ([3]; T0, listed as API (lyo process)): 95.82% and 95.42%
- KF water content % [4]: 6.16% and 3.94%
- MEC [5]: 0.0625 µg/mL
- MEC [6]: 0.125 µg/mL
- MIC [7]: 0.25 µg/mL
- MIC ([8]; Candida albicans ATCC90028): 0.25 µg/mL
- MIC [8, 16]: 0.125 µg/mL
- MIC [9]: 0.25 µg/mL
- MIC [10]: 0.25 µg/mL
- MIC [11]: 0.25 µg/mL
- MIC (Candida krusei ATCC 6258): 1 µg/mL
- MIC [12]: 1 µg/mL
- MIC [13]: 0.25 µg/mL
- MIC [14]: 16 µg/mL
- MEC [15]: 0.125 µg/mL

Compound: C[C@@H]1[C@H](O)[C@@H](C)/C=C/C=C/C=C/C=C/C=C/C=C/C=C/[C@H](O[C@@H]2O[C@H](C)[C@@H](O)[C@H](N)[C@@H]2O)C[C@@H]2O[C@](O)(C[C@@H](O)C[C@@H](O)[C@H](O)CC[C@@H](O)C[C@@H](O)CC(=O)O[C@H]1C)C[C@H](O)[C@H]2C(=O)O [amphotericin B]
- MIC [7]: 0.125 µg/mL (≈ 0.135 µM)
- MIC ([8]; Candida albicans ATCC90028): 0.125 µg/mL (≈ 0.135 µM)
- MIC [8, 16]: 0.25 µg/mL
- MIC [9]: 0.125 µg/mL (≈ 0.135 µM)
- MIC [10]: 0.25 µg/mL (≈ 0.271 µM)
- MIC [11]: 0.125 µg/mL (≈ 0.135 µM)
- MIC (Candida krusei ATCC 6258): 0.25 µg/mL (≈ 0.271 µM)
- MIC [12]: 0.25 µg/mL (≈ 0.271 µM)
- MIC [13]: 1 µg/mL (≈ 1.08 µM)
- MIC [15]: 0.125 µg/mL (≈ 0.135 µM)
